Two molecules from patent publication US11026972B2, “Methods for generating macrophages with enhanced cancer phagocytosis” (Georgia State University Research Foundation, Inc., priority 2016, dated 2021) can be followed below.

The subject of data set [1] is splenic macrophages, PEMs and BMDMs. As to the kind of experiment: Ex vivo macrophage phagocytosis toward RBCs and other self-cells after activation. In kind it is cell-based, mouse. The note with it: for conversion to potent phagocytes toward self: PEMs and BMDMs from WT and mutant mice; for phagocytosis toward CD47^− RBCs of culture-retarded WT spleen macrophages: after 2 days of culturing; for phagocytosis toward RBCs: splenic macrophages from SIRPα^−/− or CD47^−/− mice. Put shortly:
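Mouse splenic or peritoneal macrophages (2 h adherent selection) or BMDMs (M-CSF ~10 ng/ml, 5-6 days) were co-incubated 30 min at 37 °C with CFSE-labelled RBCs (1:5-10) or other cells (1:1-2). Uptake was scored by fluorescence microscopy and/or FACS with anti-F4/80 or anti-CD11b macrophage labelling.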

In the next data set the test system is SIRPα. In words: SIRPα immunoprecipitation and WB detection of SIRPα ITIM phosphorylation and SHP-1 association. The note with it: WT macrophages after LPS or IL-17 treatment. In kind it is cell-based, mouse. The method, then:
FIGS. 4A-4E include data related to our experiments on macrophage phagocytic plasticity. FIG. 4A is a panel of illustrative line graphs showing that IL-10 inhibits macrophage phagocytosis toward “self.” PEMs were treated with LPS and activating cytokines along with various concentrations of IL-10 before testing their ability to phagocytose RBCs. FIG. 4B illustrates the phagocytic plasticity of WT red pulp macrophages. […] Treatments of cultured macrophages with LPS and IL-17 re-elicited their phagocytosis toward RBCs. […] Error bars are ±SEM. ***P<0.001 vs. freshly isolated splenic macrophages. FIG. 4D includes microscopic images of RBC phagocytosis by LPS- and IL-17-treated splenic macrophages. […] WT PEMs treated with LPS or IL-17 were further treated with Cd47^+ RBCs or Cd47-AP (10 min, 37° C.) followed by cell lysis, SIRPα immunoprecipitation, and WB detection of SIRPα phosphorylation (SIRPα^pY) and SHP-1 association. Data presented in each panel represent at least three independent experiments with n≥4, if applicable.
FIGS. 5A-5H include data related to our experiments on the role of Syk in phagocytic activation. […] PEMs were treated with LPS and cytokines in the presence of various inhibitors. After washing, inhibitor-free macrophages were tested for phagocytosis toward RBCs. […] PEMs treated with LPS and activating cytokines, or together with IL-10, were tested for total Syk and phosphorylated Syk (Syk^pY, specific at Y519/520). FIG. 5D describes PMA-induced macrophages phagocytosis toward RBCs. WT and SIRPα^−/− PEMs were treated with PMA (37° C., 30 min) before testing phagocytosis toward RBCs. FIG. 5E is a schematic depiction of PKC-Syk-mediated macrophage phagocytic activation toward self. […] Left: Inhibition of Syk by piceatannol and R406 prevented PMA-induced phagocytic activation. […] Error bars are ±SEM. ***P<0.001 vs. the respective controls. […] LPS-treated WT PEMs were further briefly treated with pervanadate before testing for phagocytosis toward RBCs. Error bars are ±SEM. ***P<0.001 vs. the respective controls. […]

As for lipopolysaccharide [LPS], in data set [1], the “conversion to potent phagocytes toward self” value is “converted all PEMs and BMDMs”; the “phagocytosis toward CD47^− RBCs of culture-retarded WT spleen macrophages” value is given as “dramatically rekindled”; the “phagocytosis toward RBCs” value was “rapidly induced their phagocytosis toward RBCs”. Besides, the “phagocytosis of other cell types” value in data set [1] (activated macrophages, CD47-SIRPα-controllable manner) is “capable of phagocytizing murine splenocytes, B16 melanoma cells, and EL4 lymphoblasts”. Also, in the data set on SIRPα, the “SIRPα ITIM phosphorylation and SHP-1 association” value is “a level of SIRPα ITIM phosphorylation and SHP-1 association even in the absence of extracellular CD47 ligation”.

B1: IL-17: recombinant murine cytokine interleukin IL-17 (also known as IL-17A), PeproTech (protein, UniProt Q62386 26-158, looked up)
Interleukin-17A: AAIIPQSSACPNTEAKDFLQNVKVNLKVFNSLGAKVSSRRPSDYLNRSTSPWTLHRNEDPDRYPSVIWEAQCRHQRCVNAEGKLDHHMNSVLIQQEILVLKREPESCPFTFRVEKMLVGVGCTCVASIVRQAA
For the molecule B1, in data set [1], the “conversion to potent phagocytes toward self” value was “converted all PEMs and BMDMs”; the “phagocytosis toward CD47^− RBCs of culture-retarded WT spleen macrophages” value is recorded as “dramatically rekindled”; the “phagocytosis toward RBCs” value was “rapidly induced their phagocytosis toward RBCs”. Further, the “SIRPα ITIM phosphorylation and SHP-1 association” value in the data set with SIRPα is “a level of SIRPα ITIM phosphorylation and SHP-1 association even in the absence of extracellular CD47 ligation”.
